Patent US9206411B2, “Staphylococcal Phage2638A endolysin amidase domain is lytic for Staphylococcus aureus” (priority 2012, dated 2015)

B1: 2638A 139-486: truncated endolysin with full length amidase and SH3b domains, SEQ ID NO:5 (protein)
chain: MRPKDAKKDEKSQVCSGLAMEKYDITNLNAKQDKSKNGSVKELKHIYSNHIKGNKITAPKPSIQGVVIHNDYGSMTPSQYLPWLYARENNGTHVNGWASVYANRNEVLWYHPTDYVEWHCGNQWANANLIGFEVCESYPGRISDKLFLENEEATLKVAADVMKSYGLPVNRNTVRLHNEFFGTSCPHRSWDLHVGKGEPYTTTNINKMKDYFIKRIKHYYDGGKLEVSKAATIKQSDVKQEVKKQEAKQIVKATDWKQNKDGIWYKAEHASFTVTAPEGIITRYKGPWTGHPQAGVLQKGQTIKYDEVQKFDGHVWVSWETFEGETVYMPVRTWDAKTGKVGKLWGEIKLEHHHHHH
modifications: Phage 2638a
B2: 2638A 1-180Mut-486: repaired full length construct, codon 180 TTG silently mutated to CTC, SEQ ID NO:4 (protein)
chain: MLTAIDYLTKKGWKISSDPRTYDGYPKNYGYRNYHENGINYDEFCGGYHRAFDVYSNETNDVPAVTSGTVIEANDYGNFGGTFVIRDANDNDWIYGHLQRGSMRFVVGDKVNQGDIIGLQGNSNYYDNPMSVHLHLQLRPKDAKKDEKSQVCSGLAMEKYDITNLNAKQDKSKNGSVKELKHIYSNHIKGNKITAPKPSIQGVVIHNDYGSMTPSQYLPWLYARENNGTHVNGWASVYANRNEVLWYHPTDYVEWHCGNQWANANLIGFEVCESYPGRISDKLFLENEEATLKVAADVMKSYGLPVNRNTVRLHNEFFGTSCPHRSWDLHVGKGEPYTTTNINKMKDYFIKRIKHYYDGGKLEVSKAATIKQSDVKQEVKKQEAKQIVKATDWKQNKDGIWYKAEHASFTVTAPEGIITRYKGPWTGHPQAGVLQKGQTIKYDEVQKFDGHVWVSWETFEGETVYMPVRTWDAKTGKVGKLWGEIKLEHHHHHH
modifications: Mutated Phage 2638a
B3: 2638A 180-486: engineered amidase-SH3b construct initiated at codon 180, SEQ ID NO:6 (protein)
chain: MKHIYSNHIKGNKITAPKPSIQGVVIHNDYGSMTPSQYLPWLYARENNGTHVNGWASVYANRNEVLWYHPTDYVEWHCGNQWANANLIGFEVCESYPGRISDKLFLENEEATLKVAADVMKSYGLPVNRNTVRLHNEFFGTSCPHRSWDLHVGKGEPYTTTNINKMKDYFIKRIKHYYDGGKLEVSKAATIKQSDVKQEVKKQEAKQIVKATDWKQNKDGIWYKAEHASFTVTAPEGIITRYKGPWTGHPQAGVLQKGQTIKYDEVQKFDGHVWVSWETFEGETVYMPVRTWDAKTGKVGKLWGEIKLEHHHHHH
modifications: Phage 2638a

Columns and labels:
[1] = system: MRSA strain NRS382; assay: Control of systemic MRSA infection in a murine model; type: in vivo, Staphylococcus aureus; conditions: for Mean NRS382 Titer in the Blood: Recovered 48 hr post infection from surviving mice, same doses
[2] = system: S. aureus strain NRS119 (SA LinR #12; linezolid resistant); assay: Plate lysis assay (FIG. 3); type: cell-based; conditions: lawn on TSA plates, observed over days
Protocol: Purified proteins for each construct were diluted in sterile nickel column elution buffer, and 6 μL of lysostaphin (11 μg) or the constructs (0.2 nmoles or ˜11 μg for the repaired construct 2638A 1-180Mut-486) was spotted onto a freshly spread lawn of S. aureus strain NRS119 (SA LinR #12; linezolid resistant) growing cells that had air dried for 30 min on tryptic soy agar (TSA) plates. L=[…] Lysostaphin (Sigma); Spot 1=11 μg; all other constructs are 0.2 nmoles (˜11 μg for the repaired construct 2638A 1-180Mut-486) […]. The spotted plates were air dried for 10 min in a laminar flow hood and incubated overnight in a 37° C. environment. Scoring of the cleared spots occurred within 20 h of plating the cells.
The Plate Lysis assay results (FIG. 3) agree with the turbidity reduction assay. Each of the M23 peptidase dependent or SH3b-truncating constructs showing weak activity on S. aureus strain Newman strain. In addition to the Plate Lysis results in FIG. 3, we have also examined numerous strains with reduced but real lytic activity (Table 1). However, the plate lysis results with the 2638A endolysin constructs are extremely novel in appearance. Plate lysis results are routinely visualized as a discrete cleared spot on a lawn of bacteria after a single overnight of culture. […]

[3] = system: S. aureus strain Newman; assay: Turbidity reduction assay; type: cell-based; conditions: 0.5 μM protein; live S. aureus Newman; Mn2+, Mg2+, Ca2+ 1 mM; FIG. 3
Protocol: The turbidity assay measures the drop in optical density (OD) resulting from lysis of the target bacteria with the phage endolysin-derived protein. Mid log phase (OD600 nm of 0.4-0.6) target cells were grown in Brain Heart Infusion (Becton Dickenson, Franklin Lakes, N.J.) and concentrated in lysing buffer A (LBA; 50 mM ammonium acetate, 10 mM CaCl2, 1 mM DTT at pH 6.2) to an OD600 nm of ˜2.0. The turbidity reduction assays were performed with identical molar amounts of proteins and S. aureus strain Newman with the addition of the bivalent metal cations Mn^2+, Mg^2+, and Ca^2+ at a concentration of 1 mM. The turbidity reduction assay contained 0.5 μM protein (5.7 μg of full length repaired construct: 2638A 1-180Mut-486 in 200 μl assay) unless otherwise noted. Lane 1, 2638A 1-486 (5.7 μg total protein in 200 μl assay); Lane 2, 2638A 1-196; Lane 3, 2638A 1-220; Lane 4, 2638A 1-244; Lane 5, 2638A 1-220::355-486; Lane 6, 2638A 1-411; Lane 7, 2638A 139-411; Lane 8, 2638A 139-486; Lane 9, 2638A 180-486; Lane 10, 2638A 1-180Mut-486. Mixing reactions between the repaired full length construct 2638A 1-180Mut-486 (R) and the engineered amidase-SH3b construct 2638A 180-486 (A) were performed in the following ratios Lane 11, R:A::1:1, 1 μM; Lane 12, R:A::1:1, 0.5 μM; Lane 13, R:A::1:3, 0.5 μM; and Lane 14, R:A::3:1, 0.5 μM. Optical Density measurements are taken at regular intervals. If the lysin can digest the cell wall, lysis will occur with a subsequent reduction in OD. Changes in the OD600 nm in the control sample (cells alone) were subtracted from samples containing both cells and lysin, before calculating the specific activity. Specific Activity=ΔOD600 nm/μM/min.

[4] = system: S. aureus strain Newman; assay: Zymogram analysis; type: cell-based; conditions: 5 μg loaded; SDS treated S. aureus Newman embedded in gel; FIG. 1C
Description: Zymograms are not usually interpreted quantitatively (especially since these were loaded with μg equivalents and not molar equivalents of enzyme) but rather are used to indicate that the minor contaminating bands in the preparations are not contributing to the activity of the preparation. There was virtually no activity from any of the minor (non-shadow) bands in the zymogram assay after extended periods. However, the presence of nearly equal amounts of the active shadow band (from stained SDS gel) in many preparations negated the ability to quantify the activity from either the isolated amidase domain (2638A 139-411; 2638A 139-486) or the full length construct.

[5] = 0 hours, Balb/c mice, I.P. 4×10^7 CFU, treated 30 min post infection: 2638A 200 μg/mouse I.P., Vancomycin 375 μg/mouse s.c., Oxacillin 1250 μg/mouse s.c.

Molecule	% Survival [1, 5] [%]	% Survival ([1]; 4 hours, same model and doses) [%]	% Survival ([1]; 8 hours, same model and doses) [%]	% Survival ([1]; 12 hours, same model and doses) [%]	% Survival ([1]; 16 hours, same model and doses) [%]	% Survival ([1]; 20 hours, same model and doses) [%]	% Survival ([1]; 24 hours, same model and doses) [%]	% Survival ([1]; 28 hours, same model and doses) [%]	% Survival ([1]; 32 hours, same model and doses) [%]	% Survival ([1]; 36 hours, same model and doses) [%]	% Survival ([1]; 40 hours, same model and doses) [%]	% Survival ([1]; 44 hours, same model and doses) [%]	Mean NRS382 Titer in the Blood [1]	activity in the turbidity reduction assay [3]	other results
Cc1onc(-c2ccccc2)c1C(=O)N[C@@H]1C(=O)N2[C@@H]1SC(C)(C)[C@@H]2C(=O)O [Oxacillin]	100	100	100	100	100	40	40	30	30	30	30	30	0.9 ± 1.6 × 10^3 CFU/ml	–	survival rate ([1]; after 16 to 20 hours, same model and doses): less than 40%; average septicemia score ([1]; at 20 hours post infection, maintained until the end, score 0-5 per Table 4): approximately 4
CN[C@H](CC(C)C)C(=O)N[C@H]1C(=O)N[C@@H](CC(N)=O)C(=O)N[C@H]2C(=O)N[C@H]3C(=O)N[C@H](C(=O)N[C@H](C(=O)O)c4cc(O)cc(O)c4-c4cc3ccc4O)[C@H](O)c3ccc(c(Cl)c3)Oc3cc2cc(c3O[C@@H]2O[C@H](CO)[C@@H](O)[C@H](O)[C@H]2O[C@H]2C[C@](C)(N)[C@H](O)[C@H](C)O2)Oc2ccc(cc2Cl)[C@H]1O [Vancomycin]	100	100	100	100	100	100	100	100	100	100	100	100	1.8 ± 3.3 × 10^1 CFU/ml	–	% Survival ([1]; 48 hours (end of the experiment), same model and doses): 100%; septicemia score at the end of the experiment ([1]; 48 hours, score 0-5 per Table 4): 0
Lysostaphin: Lysostaphin (Sigma), peptidoglycan hydrolase control in plate lysis [reference compound]	–	–	–	–	–	–	–	–	–	–	–	–	–	–	appearance and persistence of the cleared zone in plate lysis [2]: cleared zone remains that way for days or weeks
B1	–	–	–	–	–	–	–	–	–	–	–	–	–	appreciable activity	staphylolytic activity (zones of clearing) in the zymogram [4]: active
B2	–	–	–	–	–	–	–	–	–	–	–	–	–	appreciable activity	–
B3	–	–	–	–	–	–	–	–	–	–	–	–	–	appreciable activity	–
